# Source: patent publication US6593454B2, “Methods for identifying inhibitors of methionine aminopeptidases” (Saint Louis University, priority 1999, dated 2003)
# Experiments:
# dipeptidyl peptidase IV = dipeptidyl peptidase IV (Homo sapiens, UniProt P27487); test: Dipeptidyl peptidase IV control assay with Gly-Pro-p-nitroanilide as substrate; format: biochemical
# Description: (§1) MAP activity was next determined by monitoring the release of p-nitroanilide in a microtiter format. Purified type 1 MAP or type 2 MAP (0.6 μg) and/or 0.001 unit of dipeptidyl peptidase IV was added in 47 μl of buffer H (10 mM Hepes, pH 7.4, 10% glycerol), containing 0.1 M KCl and 0.1 mM of Co^2+ in wells of a 96-well microtiter plate. After incubating at 37° C. for 5 min, 2 mM of Met-Gly-Pro-p-nitroanilide was added to the mixture to start the reaction. A microtiter plate reader, set at 405 nm to detect released p-nitroanilide, was used to record the progress of the reactions. […] These curves are highly reproducible and linear, with correlation coefficients (r^2)>0.98.
# (§2) After incubating the inhibitor with MAP solutions at 37° C. for 10 min, 2 mM of Met-Gly-Pro-p-nitroanilide was added to start the reaction, and the release of p-nitroanilide was monitored with a microtiter plate reader at 405 nm as described above. The effect of fumigillin on dipeptidyl peptidase IV activity was also tested by using Gly-Pro-p-nitroanilide as the substrate.
# type 1 MAP = type 1 MAP (Saccharomyces cerevisiae, UniProt Q01662); test: Coupled MAP/dipeptidyl peptidase IV assay, release of p-nitroanilide at 405 nm, type 1 MAP inhibition; format: biochemical, yeast
# type 1 MAP, sequence (Q01662 whole entry): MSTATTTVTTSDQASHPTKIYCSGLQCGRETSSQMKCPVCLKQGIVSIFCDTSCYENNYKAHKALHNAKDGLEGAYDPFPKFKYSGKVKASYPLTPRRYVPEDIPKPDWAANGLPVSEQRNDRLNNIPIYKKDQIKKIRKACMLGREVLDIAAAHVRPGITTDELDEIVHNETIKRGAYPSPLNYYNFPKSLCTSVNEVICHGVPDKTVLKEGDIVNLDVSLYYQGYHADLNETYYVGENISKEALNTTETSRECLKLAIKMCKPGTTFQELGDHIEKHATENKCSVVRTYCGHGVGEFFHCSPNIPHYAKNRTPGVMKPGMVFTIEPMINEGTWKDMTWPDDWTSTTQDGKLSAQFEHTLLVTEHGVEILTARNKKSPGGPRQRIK
# Description: as §1, §2
# type 2 MAP = type 2 MAP (Homo sapiens, UniProt P50579); test: Coupled MAP/dipeptidyl peptidase IV assay, release of p-nitroanilide at 405 nm, type 2 MAP inhibition; format: biochemical
# type 2 MAP, sequence (P50579 whole entry): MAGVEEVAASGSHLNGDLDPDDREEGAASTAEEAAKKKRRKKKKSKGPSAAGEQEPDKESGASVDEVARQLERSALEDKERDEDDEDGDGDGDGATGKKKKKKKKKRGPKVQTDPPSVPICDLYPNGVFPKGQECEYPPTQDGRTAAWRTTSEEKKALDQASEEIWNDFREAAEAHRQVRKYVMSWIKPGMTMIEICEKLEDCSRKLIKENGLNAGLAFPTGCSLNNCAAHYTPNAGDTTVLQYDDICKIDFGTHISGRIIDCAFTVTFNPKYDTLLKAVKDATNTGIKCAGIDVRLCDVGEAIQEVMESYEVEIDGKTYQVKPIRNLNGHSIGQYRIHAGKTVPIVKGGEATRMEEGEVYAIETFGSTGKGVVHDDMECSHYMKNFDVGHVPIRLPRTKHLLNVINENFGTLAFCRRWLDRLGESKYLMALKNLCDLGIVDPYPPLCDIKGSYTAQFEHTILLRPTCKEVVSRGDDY
# Description: as §1, §2
# [1] = FIG. 3 legend, dipeptidyl peptidase IV and Met-Gly-Pro-p-nitroanilide, no concentration stated
# dipeptidyl peptidase IV, sequence (P27487 whole entry, species assumed): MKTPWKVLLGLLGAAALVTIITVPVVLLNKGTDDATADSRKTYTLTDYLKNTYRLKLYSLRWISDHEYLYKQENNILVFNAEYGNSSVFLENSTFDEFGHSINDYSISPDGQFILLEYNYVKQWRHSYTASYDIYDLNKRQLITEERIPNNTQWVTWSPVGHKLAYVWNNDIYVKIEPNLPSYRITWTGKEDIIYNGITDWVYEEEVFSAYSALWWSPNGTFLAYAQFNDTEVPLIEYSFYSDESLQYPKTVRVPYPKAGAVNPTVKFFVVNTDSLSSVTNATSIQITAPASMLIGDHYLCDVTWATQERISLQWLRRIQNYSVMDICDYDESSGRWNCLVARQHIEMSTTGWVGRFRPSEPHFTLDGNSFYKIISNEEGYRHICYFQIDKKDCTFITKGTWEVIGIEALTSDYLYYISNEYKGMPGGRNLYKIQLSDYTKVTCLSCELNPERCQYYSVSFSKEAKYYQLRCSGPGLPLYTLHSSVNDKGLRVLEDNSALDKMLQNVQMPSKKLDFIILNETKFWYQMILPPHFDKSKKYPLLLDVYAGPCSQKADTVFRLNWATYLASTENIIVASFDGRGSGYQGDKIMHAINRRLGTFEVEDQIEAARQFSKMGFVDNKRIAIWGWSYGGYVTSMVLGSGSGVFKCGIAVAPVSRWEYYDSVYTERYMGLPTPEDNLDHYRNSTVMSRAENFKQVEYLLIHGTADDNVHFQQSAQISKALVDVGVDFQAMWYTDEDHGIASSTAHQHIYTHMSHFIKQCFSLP
smiles,measurement,setting,value
CO[C@@H]1[C@H](OC(=O)/C=C/C=C/C=C/C=C/C(=O)O)CC[C@]2(CO2)[C@H]1[C@@]1(C)O[C@@H]1CC=C(C)C [fumagillin],dipeptidyl peptidase IV activity,"dipeptidyl peptidase IV; 50 nM inhibitor, Gly-Pro-p-nitroanilide as substrate, FIG. 3",remained unaffected
same,release of p-nitroanilide when dipeptidyl peptidase IV was used with Gly-Pro-p-nitroanilide,"dipeptidyl peptidase IV; FIG. 3 legend, no concentration stated",not
same,type 1 MAP activity,"type 1 MAP; 50 nM inhibitor, 10 min preincubation at 37° C., 2 mM Met-Gly-Pro-p-nitroanilide, FIG. 3",remained unaffected
same,release of p-nitroanilide when type 1 MAP was used,type 1 MAP; [1],not
same,type 2 MAP activity,"type 2 MAP; 20 nM inhibitor, 10 min preincubation at 37° C., 2 mM Met-Gly-Pro-p-nitroanilide, FIG. 3",completely inhibited
same,release of p-nitroanilide when type 2 MAP was used,type 2 MAP; [1],strongly inhibited
